The nature of series [1]: Blood–brain permeability assay, multiple oral doses. It counts as in vivo, BALB/c mice. The settings on record: mice, oral gavage 25 mg/kg twice a day for 5 days, samples 4 h after each administration.
For series [2] the following is noted: cited from earlier work.
Series [3] relates to N. fowleri trophozoites. The series can be described thus: N. fowleri cellular growth inhibition assay. It counts as cell-based. The settings on record: Naegleria fowleri, 96 h, read-out: minimal inhibitory concentration (MIC).
Series [4] concerns the target T1, N. fowleri CYP51 (Naegleria fowleri, UniProt A0A6A5BCR7, E4K/I5A/S2A, form not given).
Series [5] deals with T1, N. fowleri CYP51. The format is binding. Conditions: Type I spectral response, ~2 μM P450.
Series [6] deals with T1, N. fowleri CYP51. It counts as biochemical. The settings on record: 0.5 μM P450, 60 s at 37 °C, sterol 3–50 μM.

Several values for one entry are separate records, joined by “and”; a condition that tells them apart may be missing. Equal values may be shown once.

One may read the NOAEL as the highest tested level that showed no adverse finding. As for `O=C(N[C@@H](Cn1ccnc1)c1c(F)cc(-c2ccc(F)cc2)cc1F)c1ccc(-c2nnc(-c3ccccc3)o2)cc1` [F-VFV, (R)-N-(2-(1H-imidazol-1-yl)-1-(3,4’,5-trifluoro-[1,1’-biphenyl]-4-yl)ethyl)-4-(5-phenyl-1,3,4-oxadiazol-2-yl)benzamide], the “average concentration in the brain” value in series [1] turned out to be 2.2 ± 0.2 µM. Besides, the no observed adverse effect level (NOAEL) in series [2] is over 200 mg/kg. The MIC in series [3] is 3.3 µM and 1.9 µg/mL. In series [4], the “concentration giving complete inhibition of N. fowleri CYP51 activity” value (from here on “concentration giving complete inhibition”) amounted to 3.0 µM.
As to `O=C(N[C@@H](Cn1ccnc1)c1ccc(Cl)cc1Cl)c1ccc(-c2nnc(-c3ccc(C(F)(F)F)c(F)c3)o2)cc1` [FCF3-VNI, (R)-N-(1-(2,4-dichlorophenyl)-2-(1H-imidazol-1-yl)ethyl)-4-(5-(3-fluoro-4-(trifluoromethyl)phenyl)-1,3,4-oxadiazol-2-yl)benzamide], the “concentration giving complete inhibition” value in series [4] is over 50 µM.
Regarding `O=C(N[C@@H](Cn1ccnc1)c1ccc(Cl)cc1Cl)c1ccc(-c2nnc(-c3ccc(F)c(F)c3)o2)cc1` [FF-VNI, (R)-N-(1-(2,4-dichlorophenyl)-2-(1H-imidazol-1-yl)-ethyl)-4-(5-(3,4-difluorophenyl)-1,3,4-oxadiazol-2-yl)-benzamide], the “average concentration in the brain” value in series [1] was 3.5 ± 0.3 µM. The NOAEL in series [2] is listed as over 200 mg/kg. Besides, the MIC in series [3] is 2.7 µM and 1.5 µg/mL. The “concentration giving complete inhibition” value in series [4] came to 6 µM.
`O=C(N[C@@H](Cn1ccnc1)c1ccc(-c2ccc(F)cc2)cc1F)c1ccc(-c2nnc(-c3ccccc3)o2)cc1` [VFV, (R)-N-(1-(3,4’-difluoro-[1,1’-biphenyl]-4-yl)-2-(1H-imidazol-1-yl)-ethyl)-4-(5-phenyl-1,3,4-oxadiazol-2-yl)benzamide]: the “concentration giving complete inhibition” value in series [4] amounted to 6.0 µM.
Consider `O=C(N[C@@H](Cn1ccnc1)c1ccc(Cl)cc1Cl)c1ccc(-c2nnc(-c3ccccc3)o2)cc1` [VNI, (R)-N-(1-(2,4-dichlorophenyl)-2-(1H-imidazol-1-yl)-ethyl)-4-(5-phenyl-1,3,4-oxadiazol-2-yl)benzamide], for which the “concentration giving complete inhibition” value in series [4] is 50 µM.
On to `CC(C)=CCC[C@@H](C)[C@H]1CC[C@@]2(C)[C@@H]3CC[C@H]4C(C)(C)[C@@H](O)CC[C@@]45C[C@@]35CC[C@]12C` [cycloartenol], for which the “low- to high-spin state transition in the heme iron” value (“low- to high-spin state transition” for short) in series [5] worked out at 25%.
What is called kcat is the number of substrate molecules converted per active site and unit of time at saturation. Regarding `CC(C)=CCC[C@@H](C)[C@H]1CC[C@@]2(C)C3=C(CC[C@]12C)[C@@]1(C)CC[C@H](O)C(C)(C)[C@@H]1CC3` [lanosterol], the catalytic constant (kcat) in series [6] was 1.07 s⁻¹. Moreover, the “low- to high-spin state transition” value in series [5] was 70%.
With `CC(C)=CCC[C@@H](C)[C@H]1CC[C@@]2(C)C3=C(CC[C@]12C)[C@@]1(C)CC[C@H](O)[C@H](C)[C@@H]1CC3` [norlanosterol], in series [5], the “low- to high-spin state transition” value is 94%.
Consider `C=C(CC[C@@H](C)[C@H]1CC[C@@]2(C)C3=C(CC[C@]12C)[C@@]1(C)CC[C@H](O)[C@@H](C)[C@@H]1CC3)C(C)C` [obtusifoliol], for which the kcat in series [6] was found to be 0.433 s⁻¹. In series [5], the “low- to high-spin state transition” value is reported as 90%.
Take `CC[C@@H]([C@H](C)O)n1ncn(-c2ccc(N3CCN(c4ccc(OC[C@@H]5CO[C@@](Cn6cncn6)(c6ccc(F)cc6F)C5)cc4)CC3)cc2)c1=O` [posaconazole, reference compound]: the “concentration giving complete inhibition” value in series [4] came to 2.0 µM.

Values taken from article PMC8667612 (Journal of medicinal chemistry, 2021).
